# System: hepatocytes
# Assay: Seq-Well scRNA-Seq of hepatocytes after APAP overdose (signature scores, DEG vs untreated)
# Type: in vivo, mouse
# [1] = cluster A6, DEG between treatment (APAP and PH)
smiles,measurement,setting,value
"CC(=O)Nc1ccc(O)cc1 [APAP, acetaminophen]",Ugdh avg_logFC,cluster A6 (APAP 6 hr),0.5563
same,Ugdh pct.1,cluster A6 (APAP 6 hr),0.721
same,Vcam1 avg_logFC,cluster A6 (APAP 6 hr),0.4376
same,Vcam1 pct.1,cluster A6 (APAP 6 hr),0.134
same,Vsig4 avg_logFC,cluster A6 (APAP 6 hr),0.4542
same,Vsig4 pct.1,cluster A6 (APAP 6 hr),0.117
same,Wfdc17 avg_logFC,cluster A6 (APAP 6 hr),0.4173
same,Wfdc17 pct.1,cluster A6 (APAP 6 hr),0.177
same,Xbp1 avg_logFC,cluster A6 (APAP 6 hr),0.4407
same,Xbp1 pct.1,cluster A6 (APAP 6 hr),0.692
same,Ywhag avg_logFC,cluster A6 (APAP 6 hr),0.4649
same,Ywhag pct.1,cluster A6 (APAP 6 hr),0.518
same,mmu-mir-6240 avg_logFC,cluster A6 (APAP 6 hr),1.083
same,mmu-mir-6240 pct.1,cluster A6 (APAP 6 hr),0.413
same,avg_logFC 1700017B05Rik,[1],0.3277
same,avg_logFC 2010003K11Rik,[1],0.5729
same,avg_logFC AA474408,[1],0.2664
same,avg_logFC Aass,[1],0.4071
same,avg_logFC Abca1,[1],0.6539
same,avg_logFC Abhd2,[1],0.4149
same,avg_logFC Actb,[1],1.052
same,avg_logFC Aff4,[1],0.5363
same,avg_logFC Agpat9,[1],0.3049
same,avg_logFC Alb,[1],0.3749
same,avg_logFC Apoa4,[1],1.166
same,avg_logFC Apob,[1],0.4802
same,avg_logFC App,[1],0.3381
same,avg_logFC Arhgef12,[1],0.4856
same,avg_logFC Asl,[1],0.4135
same,avg_logFC B4galt5,[1],0.4239
same,avg_logFC Bach1,[1],0.7686
same,avg_logFC Bcl2l1,[1],0.7415
same,avg_logFC Bcl3,[1],0.2741
same,avg_logFC Btg1,[1],0.3984
same,avg_logFC Btg2,[1],0.7669
same,avg_logFC C3,[1],0.2785
same,avg_logFC C230081A13Rik,[1],0.4184
same,avg_logFC Cars,[1],0.3067
same,avg_logFC Ccl6,[1],0.7868
same,avg_logFC Cdkn1a,[1],1.252
same,avg_logFC Cers6,[1],0.5071
same,avg_logFC Chic2,[1],0.3964
same,avg_logFC Chka,[1],1.403
same,avg_logFC Cidec,[1],0.3067
same,avg_logFC Cldn14,[1],0.3695
same,avg_logFC Clec4f,[1],1.124
same,avg_logFC Cltc,[1],0.6852
same,avg_logFC Creb3l2,[1],0.3971
same,avg_logFC Ctsl,[1],0.5128
same,avg_logFC Cxadr,[1],0.6568
same,avg_logFC Cyp4a14,[1],0.3334
same,avg_logFC D10Wsu102e,[1],0.5698
same,avg_logFC Ddx3x,[1],0.5612
same,avg_logFC Ddx5,[1],0.5397
same,avg_logFC Ddx21,[1],0.6559
same,avg_logFC Dgkd,[1],0.3584
same,avg_logFC Dkc1,[1],0.3054
same,avg_logFC Dot1l,[1],0.3853
same,avg_logFC Dusp6,[1],0.5087
same,avg_logFC Dusp16,[1],0.4273
same,avg_logFC Eaf1,[1],0.5072
same,avg_logFC Eef2,[1],0.4059
same,avg_logFC Efhd2,[1],0.5766
same,avg_logFC Egr1,[1],0.537
same,avg_logFC Eif1a,[1],0.7228
same,avg_logFC Eif4g2,[1],0.4126
same,avg_logFC Eif5,[1],0.4809
same,avg_logFC Epas1,[1],0.7138
same,avg_logFC Epb4.1,[1],0.4678
same,avg_logFC Errfi1,[1],0.3421
same,avg_logFC Etf1,[1],0.4526
same,avg_logFC Ets2,[1],0.6806
same,avg_logFC Fam107b,[1],0.4162
same,avg_logFC Fam134b,[1],0.8152
same,avg_logFC Fga,[1],0.501
same,avg_logFC Fgb,[1],0.4774
same,avg_logFC Fgg,[1],0.4751
same,avg_logFC Fkbp5,[1],0.4567
same,avg_logFC Fndc3b,[1],0.3496
same,avg_logFC Gclc,[1],1.802
same,avg_logFC Gcnt2,[1],0.5038
same,avg_logFC Gjb2,[1],0.5038
same,avg_logFC Gm15564,[1],0.7861
same,avg_logFC Gm20594,[1],0.4405
same,avg_logFC Gm24245,[1],0.4984
same,avg_logFC Gm26917,[1],0.4239
same,avg_logFC Gm26924,[1],0.7269
same,avg_logFC Gn12,[1],0.358
same,avg_logFC Gnl3,[1],0.4902
same,avg_logFC Gpt2,[1],0.4695
same,avg_logFC Gsta1,[1],0.4089
same,avg_logFC Gtpbp4,[1],0.4623
same,avg_logFC H3f3b,[1],0.7184
same,avg_logFC Hbb-bs,[1],2.586
same,avg_logFC Heatr1,[1],0.3815
same,avg_logFC Hif1a,[1],0.4876
same,avg_logFC Hilpda,[1],0.7803
same,avg_logFC Hmox1,[1],1.34
same,avg_logFC Hnf4a,[1],0.6962
same,avg_logFC Hnrnpdl,[1],0.3993
same,avg_logFC Hsd17b13,[1],0.4804
same,avg_logFC Hspb8,[1],0.6089
same,avg_logFC Ifrd1,[1],0.4765
same,avg_logFC Igfbp1,[1],1.09
same,avg_logFC Iigp1,[1],0.6431
same,avg_logFC Il1r1,[1],1.189
same,avg_logFC Insig2,[1],0.6081
same,avg_logFC Itih2,[1],0.3927
same,avg_logFC Itih3,[1],0.4042
same,avg_logFC Jak1,[1],0.5437
same,avg_logFC Jmjd1c,[1],0.5963
same,avg_logFC Kif5b,[1],0.4522
same,avg_logFC Klf6,[1],0.7067
same,avg_logFC Krt8,[1],1.273
same,avg_logFC Krt18,[1],1.227
same,avg_logFC Lars2,[1],0.8143
same,avg_logFC Lcn2,[1],0.3876
same,avg_logFC Lmo4,[1],0.2962
same,avg_logFC Lpin2,[1],0.5165
same,avg_logFC Lrg1,[1],0.3324
same,avg_logFC Lrrc58,[1],0.9396
same,avg_logFC Lrrfip1,[1],0.4108
same,avg_logFC Lyst,[1],0.3717
same,avg_logFC Mak16,[1],0.2897
same,avg_logFC Malat1,[1],0.9854
same,avg_logFC Map2k3,[1],0.415
same,avg_logFC Map3k5,[1],0.3131
same,avg_logFC Mat1a,[1],0.3889
same,avg_logFC Mat2a,[1],0.4758
same,avg_logFC Mcl1,[1],0.5249
same,avg_logFC Mdn1,[1],0.3079
same,avg_logFC Mfsd2a,[1],0.461
same,avg_logFC Mmp14,[1],0.2571
same,avg_logFC Mpeg1,[1],0.4668
same,avg_logFC Mrap,[1],0.8615
same,avg_logFC Mt1,[1],2.32
same,avg_logFC Mt2,[1],2.038
same,avg_logFC Mybbp1a,[1],0.4018
same,avg_logFC Myh9,[1],1.025
same,avg_logFC Myl12a,[1],0.4029
same,avg_logFC Myo1e,[1],0.5786
same,avg_logFC Nars,[1],0.3687
same,avg_logFC Ncl,[1],0.3882
same,avg_logFC Neat1,[1],0.6554
same,avg_logFC Nedd4l,[1],0.2635
same,avg_logFC Nolc1,[1],0.4445
same,avg_logFC Nop58,[1],0.6343
same,avg_logFC Pfkfb2,[1],0.2694
same,avg_logFC Phc2,[1],0.299
same,avg_logFC Picalm,[1],0.6766
same,avg_logFC Plec,[1],0.4188
same,avg_logFC Plin2,[1],1.454
same,avg_logFC Plk3,[1],0.4158
same,avg_logFC Plscr1,[1],0.4497
same,avg_logFC Ppan,[1],0.2767
same,avg_logFC Ppl,[1],0.8618
same,avg_logFC Prrc2c,[1],0.3906
same,avg_logFC Ptp4a1,[1],0.2517
same,avg_logFC Ptpn1,[1],0.3865
same,avg_logFC Ptpn2,[1],0.271
same,avg_logFC Ptpn12,[1],0.3093
same,avg_logFC Pxk,[1],0.2652
same,avg_logFC Rad54l2,[1],0.3642
same,avg_logFC Ranbp2,[1],0.5074
same,avg_logFC Rcan1,[1],0.701
same,avg_logFC Rell1,[1],0.5793
same,avg_logFC Retsat,[1],0.2918
same,avg_logFC Rnd3,[1],0.3267
same,avg_logFC Rock2,[1],0.5552
same,avg_logFC Rora,[1],0.541
same,avg_logFC S100a8,[1],1.127
same,avg_logFC S100a9,[1],1.342
same,avg_logFC Sat1,[1],0.6887
same,avg_logFC Sdad1,[1],0.2969
same,avg_logFC Sdc4,[1],0.5673
same,avg_logFC Sds,[1],0.3515
same,avg_logFC Serpina3m,[1],0.7932
same,avg_logFC Serpina3n,[1],0.6641
same,avg_logFC Slc10a2,[1],0.2704
same,avg_logFC Slc16a6,[1],0.914
same,avg_logFC Slc20a1,[1],0.326
same,avg_logFC Slc39a14,[1],0.9161
same,avg_logFC Smg1,[1],0.3045
same,avg_logFC Son,[1],0.4555
same,avg_logFC Spred1,[1],0.352
same,avg_logFC Sqstm1,[1],0.6992
same,avg_logFC Srgn,[1],0.9289
same,avg_logFC Srxn1,[1],1.864
same,avg_logFC St3gal1,[1],0.517
same,avg_logFC St3gal5,[1],0.4358
same,avg_logFC Stat3,[1],0.652
same,avg_logFC Stk40,[1],0.493
same,avg_logFC Stom,[1],0.3
same,avg_logFC Tacc2,[1],0.3128
same,avg_logFC Tars,[1],0.4718
same,avg_logFC Tatdn2,[1],0.3248
same,avg_logFC Tbc1d15,[1],0.4322
same,avg_logFC Tcerg1,[1],0.3468
same,avg_logFC Tiparp,[1],0.5248
same,avg_logFC Tjp2,[1],0.3961
same,avg_logFC Tm4sf4,[1],0.4006
same,avg_logFC Tmem87b,[1],0.4054

# — patent publication US20230053540A1, “TREATMENT OF LIVER INJURY” (Massachusetts Institute of Technology, priority 2019, published 2023)
